{"source": "patent US20240027453A1", "about": "“METHOD FOR DETECTION AND QUANTITATIVE MONITORING OF INFECTIONS WITH HERPESVIRUSES” (The Trustees of Princeton University, priority 2020, published 2024)", "system": "HCMV", "format": "cell-based", "description": "In example herpesvirus PRM assay methods shown herein, cell pellets were lysed in 2% SDS, 100 mM NaCl, 0.5 mM EDTA, 50 mM Tris, pH 8.2, and 50 μg of protein was reduced and alkylated with 25 mM TCEP and 50 mM CAM respectively for 20 min at 70° C. Proteins were then precipitated via methanol chloroform precipitation (Wessel & Flugg, Anal Biochem. 138(1):141-143, 1984), resuspended in 50 mM HEPES, pH 8.2 and digested overnight with trypsin (50:1 protein:enzyme w/w ratio). Digested peptides were desalted by SDB-RPS StageTip as previously described (Lum et al., Cell Syst., 7(6):[…], 2018; Greco et al., Methods Mol Biol 1410:39-63, 2016; Federspiel & Cristea, Methods Mol Biol., 1977:115-143, 2019).\nPeptides (1.0 μg on column) were analyzed by LC-MS/MS using a Dionex Ultimate 3000 UHPLC coupled online to an EASYSpray ion source and a Q Exactive HF. Peptides were separated on an EASYSpray C18 column (75 μm×25 cm) heated to 50° C. using a linear gradient of 5% B to 32% B over 60 min at a flow rate of 250 nL/min and were ionized at 1.7 kv. Mobile phase A consisted of 0.1% FA in H2O and mobile phase B consisted of 0.1% FA, 2.9% H2O in ACN.\nThe PRM method was controlled by a peptide inclusion list with retention time windows of 6 min for selected precursor ions.\nThe PRM assay was developed and analyzed using the open-source software Skyline (Maclean et al., Bioinformatics 26(7):966-968, 2010). Summed area under the curve of 3-4 transitions per peptide was used for quantitation. Targeted peptides were normalized to host protein loading control peptides. Peptide values for each sample were scaled to the average of each peptide across all runs. The average of multiple peptides was used as the inferred value for the protein measurement when more than one peptide was quantified (Federspiel et al., PLoS Biol. 17(9):e3000437. Doi: 10.1371/journal.pbio.3000437). PRM quantitation data were graphed using the Python Seaborn and Matplotlib libraries.\nMRC5 primary human fibroblasts (HFs) (ATCC CCL-171) were used as the model system for HSV-1 and HCMV infections and were cultured in complete growth medium (DMEM supplemented with 10% fetal bovine serum and 1% penicillin-streptomycin antibiotics) at 37° C. and 5% CO2. iSLK.219 cells harboring latent KSHV (a gift from Dr. Britt Glaunsinger, University of California, Berkeley) were grown in complete growth medium supplemented with 500 μg/ml hygromycin (ThermoFisher Scientific, 10687010) at 37° C. and 5% CO2. All cells were used for experiments within a maximum of 10 passages.\nWild type HSV-1 strain 17+ (a gift from Beate Sodeik, Hannover Medical School, Hannover, Germany) was propagated as previously described (Diner et al., 2015). Briefly, PO stocks were generated by electroporating pBAC-HSV-1 into U-2 OS cells. […] In a similar manner, wild type HCMV strain AD169 was produced from BAC electroporation into HFs and working stocks were propagated by infecting HFs at a low level. In both cases, cell-associated virus was released by sonication, combined with supernatant virus, then concentrated by ultracentrifugation (20,000 rpm, 2 hours, 4° C. with SW28 swinging bucket rotor [Beckman Coulter]) over a 10% ficoll (HSV-1) or 20% sorbitol (HCMV) cushion. Virus stock titers were determined by plaque assay for HSV-1 or tissue culture infectious dose (TCID50) for HCMV and infections were performed at a multiplicity of infection (MOI) of 3.\n12 hours prior to virus infection or reactivation, cells were treated with either the small molecule drug or DMSO/PBS control at an equivalent volume. […] For infection cycles lasting longer than 24 hours, small molecule drugs were re-added to the cell culture medium every 24 hours. Upon collection, cells were rinsed with PBS, scraped into a microcentrifuge tube, pelleted by centrifugation, and rinsed again with PBS.", "note": "Where two headings read alike, the source gives them in different places.", "data": [{"smiles": "Nc1ccn(C[C@@H](CO)OCP(=O)(O)O)c(=O)n1", "note": "[CDV, cidofovir]", "values": [{"measurement": "HCMV late gene expression", "result": "reduction"}, {"measurement": "HCMV protein levels across all temporal classes of gene expression", "setting": "1 μM", "result": "substantial decreases"}, {"measurement": "impact on HCMV IE genes compared to other gene classes", "setting": "1 μM", "result": "relatively less impacted"}, {"measurement": "decrease of HCMV protein UL54", "setting": "1 μM, across all time points", "result": "less than 20%"}, {"measurement": "decrease in HCMV protein levels compared to PBS control", "setting": "1 μM, by 72 HPI, in more than 85% of the proteins monitored", "result": "at least 35%"}, {"measurement": "decrease in abundance of HCMV IE protein UL122", "setting": "1 μM, by 120 HPI", "result": "~70", "unit": "%"}, {"measurement": "DBP (P17147) protein, numerical value of heatmap FIG. 6C", "setting": "DE, timepoint 24", "result": 0.04283}, {"measurement": "HELI (P16736) protein, numerical value of heatmap FIG. 6C", "setting": "DE, timepoint 24", "result": 0.1024}, {"measurement": "NEC2 (P16791) protein, numerical value of heatmap FIG. 6C", "setting": "DE, timepoint 24", "result": 0.0159}, {"measurement": "RIR1 (P16782) protein, numerical value of heatmap FIG. 6C", "setting": "DE, timepoint 24", "result": 0.04961}, {"measurement": "UL26 (P16762) protein, numerical value of heatmap FIG. 6C", "setting": "DE, timepoint 24", "result": 0.04954}, {"measurement": "UL32 (P08318) protein, numerical value of heatmap FIG. 6C", "setting": "DE, timepoint 24", "result": 0.01616}, {"measurement": "UL34 (P16812) protein, numerical value of heatmap FIG. 6C", "setting": "DE, timepoint 24", "result": 0.05376}, {"measurement": "UL38 (P16779) protein, numerical value of heatmap FIG. 6C", "setting": "DE, timepoint 24", "result": 0.5007}, {"measurement": "UL44 (P16790) protein, numerical value of heatmap FIG. 6C", "setting": "DE, timepoint 24", "result": 0.0325}, {"measurement": "UL54 (P08546) protein, numerical value of heatmap FIG. 6C", "setting": "DE, timepoint 24", "result": 0.2154}, {"measurement": "UL71 (P16823) protein, numerical value of heatmap FIG. 6C", "setting": "DE, timepoint 24", "result": 0.2978}, {"measurement": "UL78 (P16751) protein, numerical value of heatmap FIG. 6C", "setting": "DE, timepoint 24", "result": 0.1834}, {"measurement": "UL84 (P16727) protein, numerical value of heatmap FIG. 6C", "setting": "DE, timepoint 24", "result": 0.0827}, {"measurement": "UL96 (P16787) protein, numerical value of heatmap FIG. 6C", "setting": "DE, timepoint 24", "result": 0.339}, {"measurement": "UL97 (P16788) protein, numerical value of heatmap FIG. 6C", "setting": "DE, timepoint 24", "result": 0.1685}, {"measurement": "UL98 (P16789) protein, numerical value of heatmap FIG. 6C", "setting": "DE, timepoint 24", "result": 0.1785}, {"measurement": "UL102 (P16827) protein, numerical value of heatmap FIG. 6C", "setting": "DE, timepoint 24", "result": 0.2917}, {"measurement": "UL112/UL113 (P17151) protein, numerical value of heatmap FIG. 6C", "setting": "DE, timepoint 24", "result": 0.3345}, {"measurement": "UL114 (P16769) protein, numerical value of heatmap FIG. 6C", "setting": "DE, timepoint 24", "result": 0.3025}, {"measurement": "UL119/UL118 (P16739) protein, numerical value of heatmap FIG. 6C", "setting": "DE, timepoint 24", "result": 0.07541}, {"measurement": "UL128 (P16837) protein, numerical value of heatmap FIG. 6C", "setting": "DE, timepoint 24", "result": 0.1472}, {"measurement": "US8 (P09730) protein, numerical value of heatmap FIG. 6C", "setting": "DE, timepoint 24", "result": 0.3317}, {"measurement": "US9 (P09729) protein, numerical value of heatmap FIG. 6C", "setting": "DE, timepoint 24", "result": 0.2308}, {"measurement": "US12 (P09721) protein, numerical value of heatmap FIG. 6C", "setting": "DE, timepoint 24", "result": 0.6397}, {"measurement": "US13 (P09720) protein, numerical value of heatmap FIG. 6C", "setting": "DE, timepoint 24", "result": 0.2174}, {"measurement": "US14 (P09719) protein, numerical value of heatmap FIG. 6C", "setting": "DE, timepoint 24", "result": 0.1903}, {"measurement": "US18 (P69334) protein, numerical value of heatmap FIG. 6C", "setting": "DE, timepoint 24", "result": 0.3161}, {"measurement": "US22 (P09722) protein, numerical value of heatmap FIG. 6C", "setting": "DE, timepoint 24", "result": 0.1701}, {"measurement": "US23 (P09701) protein, numerical value of heatmap FIG. 6C", "setting": "DE, timepoint 24", "result": 0.3435}, {"measurement": "US24 (P09700) protein, numerical value of heatmap FIG. 6C", "setting": "DE, timepoint 24", "result": 0.2973}, {"measurement": "gB (P06473) protein, numerical value of heatmap FIG. 6C", "setting": "DE, timepoint 24", "result": 0.05133}, {"measurement": "sp|P09710|IR01_HCMVA (P09710) protein, numerical value of heatmap FIG. 6C", "setting": "DE, timepoint 24", "result": 0.1514}, {"measurement": "DBP (P17147) protein, numerical value of heatmap FIG. 6C", "setting": "DE, timepoint 48", "result": 0.2386}, {"measurement": "HELI (P16736) protein, numerical value of heatmap FIG. 6C", "setting": "DE, timepoint 48", "result": 0.4106}, {"measurement": "NEC2 (P16791) protein, numerical value of heatmap FIG. 6C", "setting": "DE, timepoint 48", "result": 0.08567}, {"measurement": "RIR1 (P16782) protein, numerical value of heatmap FIG. 6C", "setting": "DE, timepoint 48", "result": 0.1065}, {"measurement": "TRM1 (P16724) protein, numerical value of heatmap FIG. 6C", "setting": "DE, timepoint 48", "result": 0.1188}, {"measurement": "UL4 (P17146) protein, numerical value of heatmap FIG. 6C", "setting": "DE, timepoint 48", "result": 0.07447}, {"measurement": "UL26 (P16762) protein, numerical value of heatmap FIG. 6C", "setting": "DE, timepoint 48", "result": 0.1073}, {"measurement": "UL32 (P08318) protein, numerical value of heatmap FIG. 6C", "setting": "DE, timepoint 48", "result": 0.03113}, {"measurement": "UL34 (P16812) protein, numerical value of heatmap FIG. 6C", "setting": "DE, timepoint 48", "result": 0.1018}, {"measurement": "UL38 (P16779) protein, numerical value of heatmap FIG. 6C", "setting": "DE, timepoint 48", "result": 0.7494}, {"measurement": "UL44 (P16790) protein, numerical value of heatmap FIG. 6C", "setting": "DE, timepoint 48", "result": 0.09556}, {"measurement": "UL48 (P16785) protein, numerical value of heatmap FIG. 6C", "setting": "DE, timepoint 48", "result": 0.04333}, {"measurement": "UL54 (P08546) protein, numerical value of heatmap FIG. 6C", "setting": "DE, timepoint 48", "result": 0.6243}]}]}
